Measured values from article PMC4498228, “Biotransformation of Endocrine-Disrupting Compounds in Groundwater: Bisphenol A, Nonylphenol, Ethynylestradiol and Triclosan by a Laccase Cocktail from Pycnoporus sanguineus CS43” (Water, Air, and Soil Pollution, 2015).
Where two headings read alike, the source gives them in different places.

System: T1, laccase cocktail (LacI/LacII) from Pycnoporus sanguineus CS43
T1 construct: gene Lac I; native secreted enzymes
Experiment: transformation rates at varied EDC concentration, Michaelis-Menten fit (HPLC-UV)
Type: biochemical, Trametes sanguinea
Conditions: free laccase cocktail (two isoforms), 100 U/L, pH 5 McIlvaine buffer, 25 °C, no mediator, read-out: Catalytic parameters / K m /
Text: transformation rates at varied EDC concentration, Michaelis-Menten fit (HPLC-UV) on laccase cocktail (LacI/LacII) from Pycnoporus sanguineus CS43

| SMILES | Km (apparent Km) [µM] | Km (called Kapp in the text) [µM] |
| --- | --- | --- |
| Oc1cc(Cl)ccc1Oc1ccc(Cl)cc1Cl [TCS, triclosan] | 302 | – |
| CCCCCCCCCc1ccc(O)cc1 [NP, 4-nonylphenol] | 73.6 | – |
| CC(C)(c1ccc(O)cc1)c1ccc(O)cc1 [BPA, bisphenol A] | – | 482 |
| C#C[C@]1(O)CC[C@H]2[C@@H]3CCc4cc(O)ccc4[C@H]3CC[C@@]21C [EE2, 17-α-ethynylestradiol] | 32 | – |
